# Source: the supplement of paper PMC4862054
# How the values were obtained:
# Conditions in all cases: 72 h
# [1] = test system: CAL-51
# Protocol: (§1)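 Drug sensitivity and resistance testing (DSRT) of breast cancer cell lines in 384-well plates, 5 concentrations in 10-fold dilutions over a compound-specific 10,000-fold range. After 72 h, cytotoxicity was read by CellTox Green fluorescence and viability by CellTiter-Glo luminescence (multiplexed), normalised to DMSO and benzethonium chloride controls. EC50 is the inflection point of the fitted dose-response curve (bottom asymptote free, so it can be relative for partial curves) and is censored at the highest tested concentration. Rows with DSS 0 (no meaningful response) were excluded.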
# [2] = test system: CAL-120
# Protocol: as §1
# [3] = test system: HDQ-P1
# Protocol: as §1
# [4] = test system: Hs578T
# Protocol: as §1
# [5] = test system: BT-549
# Protocol: as §1
# [6] = test system: MDA-MB-231
# Protocol: as §1
# [7] = test system: MDA-MB-468
# Protocol: as §1
# [8] = test system: MCF-10A
# Summary of the method: (§2)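 EC50 was fitted from dose-response curves and censored at the highest concentration tested. To build those curves, breast cancer cell lines (20 µl suspension) were seeded into 384-well plates containing compound at 5 concentrations in 10-fold steps over a compound-specific 10,000-fold range and incubated for 72 h. Readouts were CellTox Green fluorescence (485/520 nm) for cell death and then CellTiter-Glo luminescence for viability, with each plate normalised to 0.1 % DMSO and a positive kill control.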
# [9] = test system: HCC1143
# Summary of the method: as §2
# [10] = test system: CAL-120; remark: listed apart in the source
# Summary of the method: (§3)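 The reported EC50 was fitted from percent-inhibition dose-response curves and censored at the highest concentration. Breast cancer cell lines (20 µl suspension) were added to 384-well plates containing compound in 5 µl medium and incubated 72 h, and viability was read with 2.5 µl CellTiter-Blue over 2 h at 37 °C at 560/590 nm. Each plate was normalised to vehicle and a positive kill control and checked by Z'-factor, and rows with zero drug sensitivity score were dropped.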
# [11] = test system: SK-BR-3
# Summary of the method: as §3
# [12] = test system: MFM-223
# Summary of the method: as §3
# [13] = test system: HCC1937
# Summary of the method: as §3
# [14] = test system: HCC1143; remark: listed apart in the source
# Summary of the method: as §3
# [15] = test system: HCC1599
# Summary of the method: as §3
# [16] = test system: Hs578T; remark: listed apart in the source
# Summary of the method: as §3
# [17] = test system: BT-549; remark: listed apart in the source
# Summary of the method: as §3
# [18] = test system: MDA-MB-231; remark: listed apart in the source
# Summary of the method: as §3
# [19] = test system: MDA-MB-436
# Summary of the method: as §3
# [20] = test system: MDA-MB-468; remark: listed apart in the source
# Summary of the method: as §3
# [21] = test system: HDQ-P1; remark: listed apart in the source
# Summary of the method: as §3
# [22] = test system: BT-474
# Summary of the method: as §3
# [23] = test system: CAL-148
# Protocol: as §1
# [24] = test system: CAL-85-1
# Protocol: as §1
# [25] = test system: MCF-10A; remark: listed apart in the source
# Protocol: as §1
# [26] = test system: MFM-223; remark: listed apart in the source
# Protocol: as §1
# [27] = test system: HCC1143; remark: listed apart in the source
# Protocol: as §1
# [28] = test system: HCC1599; remark: listed apart in the source
# Protocol: as §1
# [29] = test system: BT-474; remark: listed apart in the source
# Protocol: as §1
# [30] = test system: MDA-MB-436; remark: listed apart in the source
# Protocol: as §1
# [31] = test system: CAL-148; remark: listed apart in the source
# Summary of the method: as §2
# [32] = test system: HCC1937; remark: listed apart in the source
# Protocol: as §1
# [33] = test system: MDA-MB-453
# Protocol: as §1
# [34] = test system: DU-4475
# Protocol: as §1
SMILES,"EC50, CellTox Green [1]","EC50, CellTox Green [2]","EC50, CellTox Green [3]","EC50, CellTox Green [4]","EC50, CellTox Green [5]","EC50, CellTox Green [6]","EC50, CellTox Green [7]","EC50, CellTiter-Glo [8]","EC50, CellTiter-Glo [9]","EC50, CellTiter-Blue viability [10]","EC50, CellTiter-Blue viability [11]","EC50, CellTiter-Blue viability [12]","EC50, CellTiter-Blue viability [13]","EC50, CellTiter-Blue viability [14]","EC50, CellTiter-Blue viability [15]","EC50, CellTiter-Blue viability [16]","EC50, CellTiter-Blue viability [17]","EC50, CellTiter-Blue viability [18]","EC50, CellTiter-Blue viability [19]","EC50, CellTiter-Blue viability [20]","EC50, CellTiter-Blue viability [21]","EC50, CellTiter-Blue viability [22]","EC50, CellTox Green [23]","EC50, CellTox Green [24]","EC50, CellTox Green [25]","EC50, CellTox Green [26]","EC50, CellTox Green [27]","EC50, CellTox Green [28]","EC50, CellTox Green [29]","EC50, CellTox Green [30]","EC50, CellTiter-Glo [31]","EC50, CellTox Green [32]","EC50, CellTox Green [33]","EC50, CellTox Green [34]"
CO[C@@H]1[C@H](N(C)C(=O)c2ccccc2)C[C@H]2O[C@]1(C)n1c3ccccc3c3c4c(c5c6ccccc6n2c5c31)C(=O)NC4 [Midostaurin],29.6 nM,510 nM,1970 nM,997 nM,1060 nM,193 nM,384 nM,130 nM,414 nM,591 nM,1240 nM,708 nM,237 nM,822 nM,617 nM,299 nM,1490 nM,477 nM,204 nM,490 nM,1130 nM,,,,,,,,,,,,,
C=CCN(/C=C1/C(=O)O[C@H](COC)[C@@]2(C)C1=C(O)C(=O)C1=C2[C@H](OC(C)=O)C[C@]2(C)C(=O)CC[C@@H]12)CC=C [PX-866],,,,,,,,,,1020 nM,1320 nM,,725 nM,1130 nM,,6750 nM,,951 nM,,1390 nM,2170 nM,1680 nM,,,,,,,,,,,,
CO[C@@]12[C@H](COC(N)=O)C3=C(C(=O)C(C)=C(N)C3=O)N1C[C@@H]1N[C@@H]12 [Mitomycin C],307 nM,,> 10000 nM,> 10000 nM,,,27.6 nM,,,7160 nM,1490 nM,3790 nM,360 nM,2380 nM,1370 nM,3560 nM,2970 nM,1080 nM,2680 nM,2270 nM,8560 nM,2500 nM,,,,,,,,,,,,
C=CCn1c(=O)c2cnc(Nc3ccc(N4CCN(C)CC4)cc3)nc2n1-c1cccc(C(C)(C)O)n1 [MK1775],154 nM,1380 nM,467 nM,2130 nM,1430 nM,203 nM,156 nM,621 nM,558 nM,301 nM,120 nM,182 nM,190 nM,829 nM,632 nM,349 nM,569 nM,303 nM,350 nM,797 nM,318 nM,249 nM,143 nM,331 nM,1270 nM,267 nM,5.09 µM,54.1 nM,928 nM,69.7 nM,0.19 µM,,,
C/C(=C\c1csc(C)n1)[C@@H]1C[C@@H]2O[C@]2(C)CCC[C@H](C)[C@H](O)[C@@H](C)C(=O)C(C)(C)[C@@H](O)CC(=O)N1 [Ixabepilone],38.4 nM,,,,10.8 nM,,,,,333 nM,274 nM,322 nM,371 nM,371 nM,,625 nM,510 nM,84.3 nM,173 nM,834 nM,,672 nM,,437 nM,,,,,,,,,,
COc1cc(Nc2c(C#N)cnc3cc(OCCCN4CCN(C)CC4)c(OC)cc23)c(Cl)cc1Cl [Bosutinib],1550 nM,,5940 nM,576 nM,7580 nM,2030 nM,3540 nM,442 nM,1440 nM,1960 nM,2130 nM,5250 nM,2670 nM,1440 nM,2100 nM,4520 nM,3360 nM,2410 nM,3110 nM,3180 nM,2550 nM,3120 nM,2050 nM,1950 nM,2080 nM,,,> 10000 nM,2830 nM,6620 nM,7.59 µM,5.4 µM,7.28 µM,
CC(C)(C)c1nc(-c2cccc(NS(=O)(=O)c3c(F)cccc3F)c2F)c(-c2ccnc(N)n2)s1 [Dabrafenib],,,,9.91 nM,,,,,,,,,,,,,,,,,,,,,,,,,,,,,,224 nM
COc1ccc(S(=O)(=O)Nc2cccnc2Nc2ccc(O)cc2)cc1 [ABT-751],7380 nM,> 10000 nM,,1410 nM,190 nM,497 nM,2.99 nM,5770 nM,644 nM,295 nM,156 nM,2130 nM,349 nM,1780 nM,1590 nM,218 nM,2470 nM,376 nM,776 nM,748 nM,245 nM,552 nM,,194 nM,6830 nM,5430 nM,,,,116 nM,6.97 µM,,,
Cc1cc(Nc2nc(N[C@@H](C)c3ncc(F)cn3)ncc2Cl)[nH]n1 [AZD1480],,,,,> 1000 nM,,,,,,,64.8 nM,,,213 nM,,,,,,,,,,,872 nM,,,,,,,,
